In PubChem BioAssay (NCI):
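Cultured in 96-well plates, cells were exposed to test compound for 48 hours across five concentrations. The concentration for full growth arrest is given as TGI.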

Columns and labels:
Experiment in all cases: growth of human tumour cells (NCI), 48 h
786-0 renal = tested on: 786-0 renal
A498 renal = tested on: A498 renal
A549 NSCLC = tested on: A549 NSCLC
ACHN renal = tested on: ACHN renal
BT-549 breast = tested on: BT-549 breast
CAKI-1 renal = tested on: CAKI-1 renal
CCRF-CEM leukemia = tested on: CCRF-CEM leukemia
COLO 205 colon = tested on: COLO 205 colon
DU-145 prostate = tested on: DU-145 prostate
EKVX NSCLC = tested on: EKVX NSCLC
HCC-2998 colon = tested on: HCC-2998 colon
HCT-116 colon = tested on: HCT-116 colon
HCT-15 colon = tested on: HCT-15 colon
HL-60(TB) leukemia = tested on: HL-60(TB) leukemia
HOP-62 NSCLC = tested on: HOP-62 NSCLC
HOP-92 NSCLC = tested on: HOP-92 NSCLC
HS 578T breast = tested on: HS 578T breast
HT29 colon = tested on: HT29 colon
IGROV1 ovarian = tested on: IGROV1 ovarian
K-562 leukemia = tested on: K-562 leukemia
KM12 colon = tested on: KM12 colon
LOX IMVI melanoma = tested on: LOX IMVI melanoma
M14 melanoma = tested on: M14 melanoma
MALME-3M melanoma = tested on: MALME-3M melanoma
MCF7 breast = tested on: MCF7 breast
MDA-MB-231 breast = tested on: MDA-MB-231 breast
MDA-MB-435 = tested on: MDA-MB-435
MDA-N = tested on: MDA-N
MOLT-4 leukemia = tested on: MOLT-4 leukemia
NCI-H226 lung = tested on: NCI-H226 lung
NCI-H23 lung = tested on: NCI-H23 lung
NCI-H460 lung = tested on: NCI-H460 lung
NCI-H522 lung = tested on: NCI-H522 lung
NCI/ADR-RES ovarian = tested on: NCI/ADR-RES ovarian
OVCAR-3 ovarian = tested on: OVCAR-3 ovarian
OVCAR-4 ovarian = tested on: OVCAR-4 ovarian
OVCAR-5 ovarian = tested on: OVCAR-5 ovarian
OVCAR-8 ovarian = tested on: OVCAR-8 ovarian
PC-3 prostate = tested on: PC-3 prostate
RPMI-8226 leukemia = tested on: RPMI-8226 leukemia
RXF 393 renal = tested on: RXF 393 renal
SF-268 CNS = tested on: SF-268 CNS
SF-295 CNS = tested on: SF-295 CNS
SF-539 CNS = tested on: SF-539 CNS
SK-MEL-2 melanoma = tested on: SK-MEL-2 melanoma
SK-MEL-28 melanoma = tested on: SK-MEL-28 melanoma
SK-MEL-5 melanoma = tested on: SK-MEL-5 melanoma
SK-OV-3 ovarian = tested on: SK-OV-3 ovarian
SN12C renal = tested on: SN12C renal
SNB-19 CNS = tested on: SNB-19 CNS
SNB-75 CNS = tested on: SNB-75 CNS
SR leukemia = tested on: SR leukemia
SW-620 colon = tested on: SW-620 colon
T-47D breast = tested on: T-47D breast
TK-10 renal = tested on: TK-10 renal
U251 CNS = tested on: U251 CNS
UACC-257 melanoma = tested on: UACC-257 melanoma
UACC-62 melanoma = tested on: UACC-62 melanoma
UO-31 renal = tested on: UO-31 renal

COC(=O)/C=C\C(C#N)(C#N)N=Cc1ccc(C)cc1
TGI (786-0 renal): 3.44 µM
TGI (A498 renal): 31.8 µM
TGI (A549 NSCLC): 34.3 µM
TGI (ACHN renal): 6.04 µM
TGI (BT-549 breast): 11.2 µM
TGI (CAKI-1 renal): 6.53 µM
TGI (CCRF-CEM leukemia): 2.1 µM
TGI (COLO 205 colon): 4.56 µM
TGI (DU-145 prostate): 15.7 µM
TGI (EKVX NSCLC): 28.7 µM
TGI (HCC-2998 colon): 35.3 µM
TGI (HCT-116 colon): 3.57 µM
TGI (HCT-15 colon): 6.87 µM
TGI (HL-60(TB) leukemia): 8.14 µM
TGI (HOP-62 NSCLC): 34.2 µM
TGI (HOP-92 NSCLC): 3.6 µM
TGI (HS 578T breast): 45.3 µM
TGI (HT29 colon): 18.7 µM
TGI (IGROV1 ovarian): 26.3 µM
TGI (K-562 leukemia): 16.7 µM
TGI (KM12 colon): 35.3 µM
TGI (LOX IMVI melanoma): 5.8 µM
TGI (M14 melanoma): 4.42 µM
TGI (MALME-3M melanoma): 5.5 µM
TGI (MCF7 breast): 3.68 µM
TGI (MDA-MB-231 breast): 30.1 µM
TGI (MDA-MB-435): 5.01 µM
TGI (MDA-N): 14 µM
TGI (MOLT-4 leukemia): 3.77 µM
TGI (NCI-H226 lung): 21.5 µM
TGI (NCI-H23 lung): 15.1 µM
TGI (NCI-H460 lung): 41.1 µM
TGI (NCI-H522 lung): 1.64 µM
TGI (NCI/ADR-RES ovarian): 10.9 µM
TGI (OVCAR-3 ovarian): 5.82 µM
TGI (OVCAR-4 ovarian): 12.9 µM
TGI (OVCAR-5 ovarian): 37.8 µM
TGI (OVCAR-8 ovarian): 6.12 µM
TGI (PC-3 prostate): 15.2 µM
TGI (RPMI-8226 leukemia): 3.52 µM
TGI (RXF 393 renal): 3.9 µM
TGI (SF-268 CNS): 9.33 µM
TGI (SF-295 CNS): 51 µM
TGI (SF-539 CNS): 10.9 µM
TGI (SK-MEL-2 melanoma): 32.1 µM
TGI (SK-MEL-28 melanoma): 19.8 µM
TGI (SK-MEL-5 melanoma): 26.9 µM
TGI (SK-OV-3 ovarian): 31.6 µM
TGI (SN12C renal): 29.8 µM
TGI (SNB-19 CNS): 43.1 µM
TGI (SNB-75 CNS): 31 µM
TGI (SR leukemia): 3.8 µM
TGI (SW-620 colon): > 27.9 µM
TGI (T-47D breast): 4.61 µM
TGI (TK-10 renal): 3.65 µM
TGI (U251 CNS): 27.7 µM
TGI (UACC-257 melanoma): 12.6 µM
TGI (UACC-62 melanoma): 28.4 µM
TGI (UO-31 renal): 7.16 µM

Cc1cc(/N=C/c2ccc(N(C)C)cc2)n(-c2ccccc2)n1
TGI (786-0 renal): > 100 µM
TGI (A498 renal): 84.5 µM
TGI (A549 NSCLC): > 100 µM
TGI (ACHN renal): > 100 µM
TGI (BT-549 breast): > 100 µM
TGI (CAKI-1 renal): > 100 µM
TGI (CCRF-CEM leukemia): > 100 µM
TGI (COLO 205 colon): > 100 µM
TGI (DU-145 prostate): > 100 µM
TGI (EKVX NSCLC): > 100 µM
TGI (HCC-2998 colon): 61.7 µM
TGI (HCT-116 colon): > 100 µM
TGI (HCT-15 colon): > 100 µM
TGI (HL-60(TB) leukemia): > 100 µM
TGI (HOP-62 NSCLC): > 100 µM
TGI (HOP-92 NSCLC): > 100 µM
TGI (HS 578T breast): > 100 µM
TGI (HT29 colon): > 100 µM
TGI (IGROV1 ovarian): > 100 µM
TGI (K-562 leukemia): > 100 µM
TGI (KM12 colon): > 100 µM
TGI (LOX IMVI melanoma): > 100 µM
TGI (M14 melanoma): > 100 µM
TGI (MALME-3M melanoma): > 100 µM
TGI (MCF7 breast): > 100 µM
TGI (MDA-MB-231 breast): > 100 µM
TGI (MDA-MB-435): > 100 µM
TGI (MDA-N): > 100 µM
TGI (MOLT-4 leukemia): > 100 µM
TGI (NCI-H226 lung): > 100 µM
TGI (NCI-H23 lung): > 100 µM
TGI (NCI-H460 lung): > 100 µM
TGI (NCI-H522 lung): > 100 µM
TGI (NCI/ADR-RES ovarian): > 100 µM
TGI (OVCAR-3 ovarian): 82.4 µM
TGI (OVCAR-4 ovarian): > 100 µM
TGI (OVCAR-5 ovarian): > 100 µM
TGI (OVCAR-8 ovarian): > 100 µM
TGI (PC-3 prostate): > 100 µM
TGI (RPMI-8226 leukemia): > 100 µM
TGI (RXF 393 renal): > 100 µM
TGI (SF-268 CNS): > 100 µM
TGI (SF-295 CNS): > 100 µM
TGI (SF-539 CNS): > 100 µM
TGI (SK-MEL-2 melanoma): > 100 µM
TGI (SK-MEL-28 melanoma): > 100 µM
TGI (SK-MEL-5 melanoma): > 100 µM
TGI (SK-OV-3 ovarian): > 100 µM
TGI (SN12C renal): > 100 µM
TGI (SNB-19 CNS): > 100 µM
TGI (SNB-75 CNS): > 100 µM
TGI (SR leukemia): > 100 µM
TGI (SW-620 colon): > 100 µM
TGI (T-47D breast): 89.5 µM
TGI (TK-10 renal): > 100 µM
TGI (U251 CNS): > 100 µM
TGI (UACC-257 melanoma): > 100 µM
TGI (UACC-62 melanoma): > 100 µM
TGI (UO-31 renal): > 100 µM

N#CC(C#N)=C1SC(=Nc2ccccc2)C(=Nc2ccccc2)N1c1ccccc1
TGI (786-0 renal): 60.8 µM
TGI (A498 renal): > 92.2 µM
TGI (A549 NSCLC): > 100 µM
TGI (ACHN renal): 71.3 µM
TGI (BT-549 breast): 21.5 µM
TGI (CAKI-1 renal): > 56.3 µM
TGI (CCRF-CEM leukemia): 6.35 µM
TGI (COLO 205 colon): 30.2 µM
TGI (DU-145 prostate): > 100 µM
TGI (EKVX NSCLC): > 100 µM
TGI (HCC-2998 colon): > 72 µM
TGI (HCT-116 colon): 32.7 µM
TGI (HCT-15 colon): 6.3 µM
TGI (HL-60(TB) leukemia): > 24.6 µM
TGI (HOP-62 NSCLC): > 80.9 µM
TGI (HOP-92 NSCLC): 15.6 µM
TGI (HS 578T breast): > 93 µM
TGI (HT29 colon): > 69.9 µM
TGI (IGROV1 ovarian): 28.9 µM
TGI (K-562 leukemia): 7.12 µM
TGI (KM12 colon): > 53.8 µM
TGI (LOX IMVI melanoma): 24.4 µM
TGI (M14 melanoma): 54.7 µM
TGI (MALME-3M melanoma): 67.6 µM
TGI (MCF7 breast): > 58.7 µM
TGI (MDA-MB-231 breast): 26.6 µM
TGI (MDA-MB-435): 35.1 µM
TGI (MDA-N): 37.8 µM
TGI (MOLT-4 leukemia): 11.8 µM
TGI (NCI-H226 lung): 44.7 µM
TGI (NCI-H23 lung): 97.7 µM
TGI (NCI-H460 lung): > 31.6 µM
TGI (NCI-H522 lung): 4.08 µM
TGI (NCI/ADR-RES ovarian): 97.1 µM
TGI (OVCAR-3 ovarian): 6.04 µM
TGI (OVCAR-4 ovarian): 34.8 µM
TGI (OVCAR-5 ovarian): 47.3 µM
TGI (OVCAR-8 ovarian): 65.9 µM
TGI (PC-3 prostate): 25.1 µM
TGI (RPMI-8226 leukemia): > 55.3 µM
TGI (RXF 393 renal): 45.5 µM
TGI (SF-268 CNS): > 66.7 µM
TGI (SF-295 CNS): > 76.6 µM
TGI (SF-539 CNS): 22.5 µM
TGI (SK-MEL-2 melanoma): 44.3 µM
TGI (SK-MEL-28 melanoma): > 58 µM
TGI (SK-MEL-5 melanoma): 28.7 µM
TGI (SK-OV-3 ovarian): > 100 µM
TGI (SN12C renal): 77.2 µM
TGI (SNB-19 CNS): > 100 µM
TGI (SNB-75 CNS): > 100 µM
TGI (SR leukemia): > 26.2 µM
TGI (SW-620 colon): 11.5 µM
TGI (T-47D breast): 18 µM
TGI (TK-10 renal): > 100 µM
TGI (U251 CNS): 41 µM
TGI (UACC-257 melanoma): 30 µM
TGI (UACC-62 melanoma): 14.2 µM
TGI (UO-31 renal): 25.3 µM
